Test results as given in publication PMC11600510 (Journal of Chemical Information and Modeling, 2024).
Entries after “also recorded” stand apart in the source; their conditions may differ.

Assays:
[1] = Metabolic stability in human liver microsomes; assay type: in vitro ADME
From the text: CKP-25 was studied for its metabolic stability. In particular, the metabolic stability of a compound can be interpreted using several approaches, as it can be ranked in terms of its intrinsic clearance (CLint) and in vitro t1/2 values or based on parent structure loss during metabolic reactions[96],[97] CLin describes the maximum activity of liver (microsomal proteins or hepatocytes) toward a compound not influenced by other physiological determinants, such as hepatic blood flow and drug binding within the blood matrix and in vitro t1/2 expresses the time for 50% disappearance of the compound. Parent structure loss was our option for metabolic stability data interpretation of CKP-25. Parent structure loss is classified as very slow (<5%), slow (5–19%), moderate (20–50%), fast (50–80%) or very fast (>80%). Such categories have been defined according to set criteria, namely, high metabolism (t1/2 value of <30 min), moderate metabolism (30 min < t1/2 value of <60 min) and low metabolism (t1/2 value of >60 min).[98]−[100]
Metabolic stability was evaluated using pooled human liver microsomes at a 0.5 mg/mL concentration. […] Each test-compound was assessed at a concentration of 1 μM. […] The depletion of test compounds was then profiled, and the residual percentage compared to time zero was determined. The readouts were recorded using a Lionheart FX system from Agilent BioTek (Winooski, VT, USA).

E. coli WP2 uvrA strain = assay: Microbial mutagenicity assay (Ames test)
SARS-CoV-2 [2] = assay type: cell-based
SARS-CoV-2 [3] = assay: microbe, parasite or virus in culture; assay type: cell-based
CYP450 system = assay: Isozyme-specific CYP450 study, overall statement; assay type: in vitro ADME, human; conditions: 1 μM
Description: For this, the activity of CYP1A2, CYP2A6, CYP2B6, CYP2C9, CYP2C19, CYP2D6, and CYP3A4 was assessed after the administration of CKP-25 at 1 μM to determine (a) the oxidative (CYP-mediated) metabolic stability profile in question and (b) the enzyme metabolizing isoforms responsible (the test system consists of recombinant human CYP450 and CYP450 reductase; cytochrome b5 may also be present). Herein, no concentration-dependent effects were reported. […] No product inhibition or mechanism-based inactivation of the CYP450 isoenzymes in question was obtained. […]
Human cytochrome P450 (CYP450) isoenzymes were expressed in Baculosomes obtained from Thermo Fisher Scientific (Waltham, MA, USA). […] Compound CKP-25 was evaluated at a concentration of 1 μM according to our established standard operating procedures and protocols as described previously.[127],[128] The enzymatic activity of various CYP450 isoforms (CYP1A2, CYP2A6, CYP2B6, CYP2C9, CYP2C19, CYP2D6, and CYP3A4) was measured, considering the kinetic model for each isoform. […] Upon the addition of the fluorescent substrate, signal monitoring was performed immediately (within 2 min) using appropriate excitation and emission wavelengths, recorded by an Agilent BioTek Lionheart FX (Winooski, VT, USA). CYP450 inhibition (%) was calculated based on the reaction rates (fluorescence intensity changes per unit time). […]

[4] = target: T1, Spike RBD/ACE2 (19–615) interaction (Severe acute respiratory syndrome coronavirus 2, UniProt P0DTC2); assay: cell-based; assay type: cell-based, SARS-CoV-2; conditions: HEK-293T, 48 h, read-out: suppression of Spike RBD/ACE2 (19–615) interaction
T1 construct: S protein RBD (aa residues 319–541) of SARS-CoV-2; expressed in transfected cells; host or cells: HEK293T

With `COc1cccc2c1ncn2Cc1ccc2ccccc2c1` [CKP-25, 4-Methoxy-1-(naphthalen-2-ylmethyl)-1H-benzo[d]imidazole] the “substrate depletion (in words)” value [1] was “slow substrate depletion”, the mean revertants (E. coli WP2 uvrA strain; 2.5 μg/plate, +S9) was 13 and the mean revertants (E. coli WP2 uvrA strain; 2.5 μg/plate, –S9) was 7.5. For the same compound, the mean revertants (E. coli WP2 uvrA strain; 25 μg/plate, +S9) was 19, the mean revertants (E. coli WP2 uvrA strain; 25 μg/plate, –S9) was 12.5 and the mean revertants (E. coli WP2 uvrA strain; 50 μg/plate, +S9) was 15. The mean revertants (E. coli WP2 uvrA strain; 50 μg/plate, –S9) was 13, the mean revertants (E. coli WP2 uvrA strain; 100 μg/plate, +S9) was 13 and the mean revertants (E. coli WP2 uvrA strain; 100 μg/plate, –S9) was 11.5. The mean revertants (E. coli WP2 uvrA strain; 200 μg/plate, +S9) was 16, the mean revertants (E. coli WP2 uvrA strain; 200 μg/plate, –S9) was 5.5 and the “mutagenic activity (in words)” value (E. coli WP2 uvrA strain; 12.5 to 200 μg/plate, with and without S9-mix) was “does not elicit mutagenic effect; also recorded: does not exhibit mutagenic activity”. The “reduction of the viral titter (TCID50)” value (SARS-CoV-2 [2]) was “approximately 90%”, the “effect on the cytopathic effect of SARS-CoV-2 (in words)” value (SARS-CoV-2 [3]) was “consistently reduced the cytopathic effect” and the IC50 (SARS-CoV-2 [3]; Severe acute respiratory syndrome coronavirus 2, Vero C1008, 48 h, read-out: IC50, SARS-CoV-2 CPE) was 3.5 µM. The “inhibition of the CYP450 system (in words)” value (CYP450 system) was “weak inhibitor”, the “solubility issues in the CYP450 assay” value (CYP450 system) was “No solubility issues” and the inhibition at 25 µM [4] was 34%.
